# How the values were obtained:
# [1] = tested on: G. vaginalis ATCC 14018 planktonic cells; assay: Checkerboard assay / MIC against planktonic cells; assay type: cell-based; settings: Gardnerella vaginalis, ATCC14018; agent alone, planktonic G. vaginalis 14018, 24 h anaerobic, 37° C.; read-out: minimal inhibitory concentration (MIC)
# Method: From each dilution of boric acid, 50 μl was added horizontally over 50 μl of metronidazole or tinidazole.
# The FIC index (FICI) for the combination of two agents is the sum of their individual FIC values.
# [2] = tested on: biofilm formation by G. vaginalis ATCC 14018; assay: Inhibition of biofilm formation (MIC-B, crystal violet staining, checkerboard); assay type: cell-based, Gardnerella vaginalis; settings: for MIC: Gardnerella vaginalis, ATCC14018, read-out: MIC-B90
# Method: Combinations of boric acid with metronidazole or tinidazole were tested in vitro in a non-planktonic, biofilm model for inhibition of biofilm formation by G. vaginalis (ATCC strain 14018).
# Bacterial strain, culture media and growth conditions: From the frozen stock (−80° C.), G. vaginalis ATCC 14018 was inoculated in three culture media and propagated at 37° C. for 48 h. Brain-heart infusion (BHI) broth (Difco BD, Franklin, NJ, USA) supplemented with horse serum 3% (JRH Biosciences, KS) was used to maintain microbial growth. […] (HBT) agar (Remel, Lenexa, KS, USA) was used to confirm the purity of the frozen stock. The inoculated broth and HBT agar were incubated anaerobically (10% hydrogen, 5% carbon dioxide and 85% nitrogen) using an anaerobic gloves box (Coy Laboratory Products, Inc., Grass Lake, MI, USA). After the incubation period, the bacterial cells were transferred to BHI broth supplemented with 1% glucose (Fisher Scientific, Waltham, MA, USA) (BHIG), every 24 h twice prior to the initiation of an experiment. In order to provide suitable conditions for G. vaginalis anaerobic growth and to avoid oxidative stress, culture media were pre-incubated in the anaerobic chamber at least overnight before bacterial inoculation.
# Stock solutions of antibacterial agents: Antimicrobials were evaluated for their activity against biofilm-associated G. vaginalis. Metronidazole was purchased from Alfa Aesar (Ward Hill, Massachusetts, USA). Metronidazole was prepared as a stock solution of 10 mg mL^−1 in ddH2O. Tinidazole was purchased from TCI America (Portland, OR, USA). Tinidazole was prepared as a stock solution of 10 mg/ml in DMSO. Boric acid was purchased from Fisher Chemical (Hampton, NH, USA). A fresh 1 mg mL^−1 boric acid solution in BHIG was prepared at the beginning of each experiment within the anaerobic chamber, and mixed with BHIG that had been in the anaerobic chamber overnight (to avoid oxidative stress). The stock solutions of antimicrobials were sterilized using syringe filter 0.45 μm and kept in the refrigerator for a maximum of 3 weeks. On the day of the experiment, the stock solutions were diluted in the anaerobic chamber (to avoid oxidative stress) with pre-incubated BHIG broth to avoid changing the concentrations of nutrients of growth media.
# Determination of minimum biofilm inhibitory concentrations (MICs-B): MIC determination was performed according to Sutyak et al. (Antimicrob Agents, Ch 56: 1756-61, 2012) with minor modifications. Each agent was diluted two-fold with BHIG broth into two separate 96-well non-tissue culture microplates. From each dilution of boric acid, 50 μl was added horizontally over 50 μl of metronidazole or tinidazole. The final volume of antimicrobial agents diluted into the broth was 100 μL in each well. The overnight cell culture at 3±2×10^8 CFU mL^−1 was diluted in BHIG to a final concentration of 5×10^6 CFU mL^−1. From the diluted bacterial cells, 100 μL was transferred into the wells containing predetermined concentrations of antimicrobials. Sterile sealing tape (Thermo Fisher Scientific, Rochester, NY) was used to prevent evaporation. The 96-well plate was then incubated anaerobically at 37° C. for 48 h. After incubation, the biofilm was stained using 0.1% crystal violet as described by Algburi et al. (Antimicrob Agents, Ch. 61: e00650-17, 2017); Weeks et al. (Pathog Dis 77(8):ftz059, 2019; doi: 10.1093/femspd/ftz059).
# Biofilm staining using CV: Biofilm staining using CV was performed as described by Borucki et al. (Appl Environ Microbiol, 69(12):7336-42, 2003, doi: 10.1128/AEM.69.12.7336-7342.2003) with minor modifications. Briefly, after counting of the non-adherent cells, the biofilm was fixed at 60° C. for 60 minutes in an inverted position in an incubator (New Brunswick Scientific Co., Inc., NJ, USA). To each well, 125 μl of 0.1% CV was added and left at room temperature for 20 minutes.
# [3] = concentration needed to inhibit 90% of biofilm, agent alone
compound,measurement,setting,value
Cc1ncc([N+](=O)[O-])n1CCO [metronidazole],MIC,[1],6.25 mg/L
same,MIC,[2]; [3],25 mg/L
same,Biofilm mass as a percentage of an untreated control,[2]; well H1: metronidazole 25 μg/ml alone (boric acid 0),0%
same,Biofilm mass as a percentage of an untreated control,[2]; well H2: metronidazole 12.5 μg/ml alone (boric acid 0),11%
same,Biofilm mass as a percentage of an untreated control,[2]; well H3: metronidazole 6.25 μg/ml alone (boric acid 0),61%
same,Biofilm mass as a percentage of an untreated control,[2]; well H4: metronidazole 3.125 μg/ml alone (boric acid 0),73%
same,Biofilm mass as a percentage of an untreated control,[2]; well H5: metronidazole 1.5625 μg/ml alone (boric acid 0),88%
same,Biofilm mass as a percentage of an untreated control,[2]; well H6: metronidazole 0.78125 μg/ml alone (boric acid 0),96%
same,Biofilm mass as a percentage of an untreated control,[2]; well H7: metronidazole 0.390625 μg/ml alone (boric acid 0),95%
same,Biofilm mass as a percentage of an untreated control,[2]; well H8: metronidazole 0.195313 μg/ml alone (boric acid 0),123%
same,Biofilm mass as a percentage of an untreated control,[2]; well H9: metronidazole 0.09765625 μg/ml alone (boric acid 0),100%
CCS(=O)(=O)CCn1c([N+](=O)[O-])cnc1C [tinidazole],MIC,[1],1.56 mg/L
same,MIC,[2]; [3],25 mg/L
same,Biofilm mass as a percentage of an untreated control,[2]; well H1: tinidazole 25 μg/ml alone (boric acid 0),6%
same,Biofilm mass as a percentage of an untreated control,[2]; well H2: tinidazole 12.5 μg/ml alone (boric acid 0),15%
same,Biofilm mass as a percentage of an untreated control,[2]; well H3: tinidazole 6.25 μg/ml alone (boric acid 0),33%
same,Biofilm mass as a percentage of an untreated control,[2]; well H4: tinidazole 3.125 μg/ml alone (boric acid 0),104%
same,Biofilm mass as a percentage of an untreated control,[2]; well H5: tinidazole 1.5625 μg/ml alone (boric acid 0),133%
same,Biofilm mass as a percentage of an untreated control,[2]; well H6: tinidazole 0.78125 μg/ml alone (boric acid 0),134%
same,Biofilm mass as a percentage of an untreated control,[2]; well H7: tinidazole 0.390625 μg/ml alone (boric acid 0),88%
same,Biofilm mass as a percentage of an untreated control,[2]; well H8: tinidazole 0.195313 μg/ml alone (boric acid 0),92%
same,Biofilm mass as a percentage of an untreated control,[2]; well H9: tinidazole 0.09765625 μg/ml alone (boric acid 0),95%
OB(O)O [boric acid],MIC,[1],1.25 mg/L
same,MIC,[2]; [3],2.5 mg/L
same,MIC-B90,[2]; [3],0.25 % m/v
same,Biofilm mass as a percentage of an untreated control,[2]; well A10: boric acid 0.5 m/v alone (metronidazole 0),−2%
same,Biofilm mass as a percentage of an untreated control,[2]; well A10: boric acid 0.5 m/v alone (tinidazole 0),−1%
same,Biofilm mass as a percentage of an untreated control,[2]; well B10: boric acid 0.25 m/v alone (metronidazole 0),−1%
same,Biofilm mass as a percentage of an untreated control,[2]; well B10: boric acid 0.25 m/v alone (tinidazole 0),0%
same,Biofilm mass as a percentage of an untreated control,[2]; well C10: boric acid 0.125 m/v alone (metronidazole 0),85%
same,Biofilm mass as a percentage of an untreated control,[2]; well C10: boric acid 0.125 m/v alone (tinidazole 0),63%
same,Biofilm mass as a percentage of an untreated control,[2]; well D10: boric acid 0.0625 m/v alone (metronidazole 0),95%
same,Biofilm mass as a percentage of an untreated control,[2]; well D10: boric acid 0.0625 m/v alone (tinidazole 0),88%
same,Biofilm mass as a percentage of an untreated control,[2]; well E10: boric acid 0.03125 m/v alone (metronidazole 0),92%
same,Biofilm mass as a percentage of an untreated control,[2]; well E10: boric acid 0.03125 m/v alone (tinidazole 0),93%
same,Biofilm mass as a percentage of an untreated control,[2]; well F10: boric acid 0.015625 m/v alone (metronidazole 0),100%
same,Biofilm mass as a percentage of an untreated control,[2]; well F10: boric acid 0.015625 m/v alone (tinidazole 0),95%
same,Biofilm mass as a percentage of an untreated control,[2]; well G10: boric acid 0.007813 m/v alone (metronidazole 0),101%
same,Biofilm mass as a percentage of an untreated control,[2]; well G10: boric acid 0.007813 m/v alone (tinidazole 0),98%
